Values of other authors, collected in patent publication US8193242B2 (XenoPort, Inc., priority 2005, dated 2012).

Details: following oral administration

CC(C)(C)C(=O)Oc1ccc(C[C@H](N)C(=O)O)cc1O [NB-355]
Duration of circulating levodopa: prolonged | Plasma concentrations of levodopa: low
